Calls of active or inactive are those of the source. The calls are words filed in the database; no cut-off is given here.

As a reminder, the Ki is the dissociation constant of the complex between target and ligand, obtained from inhibition or displacement. The term half-life denotes the time in which the quantity being followed falls by half. Read a high half-life as slow loss.

Series [1] has as its target Neuronal acetylcholine receptor; alpha3/beta4 (Homo sapiens, UniProt P30926+P32297). Briefly: Binding affinity to alpha3beta4 nAChR (unknown origin) assessed as dissociation constant. Format: protein-complex assay.
Series [2] has as its target Neuronal acetylcholine receptor subunit alpha-7 (Homo sapiens, UniProt P36544). As to the kind of experiment: Binding affinity to alpha7 nAChR (unknown origin) assessed as dissociation constant.
Series [3] addresses Neuronal acetylcholine receptor; alpha4/beta2 (Homo sapiens, UniProt P17787+P43681). As to the kind of experiment: Binding affinity to alpha4beta2 nAChR (unknown origin) assessed as dissociation constant. Format: protein-complex assay.
Series [4] has as its system Cavia porcellus. As to the kind of experiment: Anti-tussive activity in guniea pig cough model assessed as reduction in cumulative number of coughs at 30 mg/kg, ip. Format: functional, organism-based.
Series [5] has as its system Cavia porcellus. As to the kind of experiment: Anti-tussive activity in guniea pig cough model assessed as reduction in cumulative number of coughs at 0.4 mg/kg, INH. Format: functional, organism-based.
Series [6] concerns Cavia porcellus. As to the kind of experiment: Anti-tussive activity in guniea pig cough model assessed as reduction in cumulative number of coughs at 9.5 mg/kg, po. Format: functional, organism-based.
The nature of series [7]: Half life in ip dosed guinea pig. The series is classed as ADME, organism-based, Cavia porcellus. The conditions noted are these: in vivo.
Series [8] deals with Cavia porcellus. Briefly: Anti-tussive activity in guniea pig cough model assessed as reduction in cough inhibition period at 0.1 to 0.4 mg/kg, INH. Format: functional, organism-based. The conditions noted are these: dose 0.1-0.4 mg/kg.
Series [9] concerns Cavia porcellus. Briefly: Anti-tussive activity in guniea pig cough model assessed as reduction in cough inhibition period at 1 to 9.5 mg/kg, ip. The series is classed as functional, organism-based. The conditions noted are these: dose 1-9.5 mg/kg.
Series [10] concerns Cavia porcellus. As to the kind of experiment: Anti-tussive activity in guniea pig cough model assessed as suppression of cough frequency at 1 to 9.5 mg/kg, ip. The series is classed as functional, organism-based. The note with it: dose 1-9.5 mg/kg.
Series [11] deals with Cavia porcellus. Briefly: Anti-tussive activity in guniea pig cough model assessed as reduction in cumulative number of coughs at 1 to 9.5 mg/kg, ip. The conditions noted are these: dose 1-9.5 mg/kg. The series is classed as functional, organism-based.
A short description of series [12]: Half life in INSULFFLATION dosed guinea pig. The series is classed as ADME, organism-based, Cavia porcellus. The note with it: in vivo, inhaled or intranasal.
The subject of series [13] is Cavia porcellus. Briefly: Anti-tussive activity in guniea pig cough model assessed as reduction in cumulative number of coughs at 1 to 2 mg/kg, IT. The series is classed as functional, organism-based. The note with it: dose 1-2 mg/kg.
Series [14] in a line: Half life in po dosed guinea pig. Format: ADME, organism-based, Cavia porcellus. The conditions noted are these: in vivo.
The subject of series [15] is Cavia porcellus. As to the kind of experiment: Anti-tussive activity in citric acid-induced guniea pig cough model assessed as reduction in cough count at 30 mg/kg, ip. Format: functional, organism-based.
The subject of series [16] is Cavia porcellus. As to the kind of experiment: Anti-tussive activity in guniea pig cough model assessed as suppression of cough frequency at 3 to 30 mg/kg, ip. Format: functional, organism-based. The note with it: dose 3-30 mg/kg.
Series [17] concerns Cavia porcellus. Briefly: Anti-tussive activity in guniea pig cough model assessed as reduction in cumulative number of coughs at 3 to 30 mg/kg, ip. Format: functional, organism-based. The conditions noted are these: dose 3-30 mg/kg.

Sequence of Neuronal acetylcholine receptor; alpha3/beta4 (P30926 whole entry): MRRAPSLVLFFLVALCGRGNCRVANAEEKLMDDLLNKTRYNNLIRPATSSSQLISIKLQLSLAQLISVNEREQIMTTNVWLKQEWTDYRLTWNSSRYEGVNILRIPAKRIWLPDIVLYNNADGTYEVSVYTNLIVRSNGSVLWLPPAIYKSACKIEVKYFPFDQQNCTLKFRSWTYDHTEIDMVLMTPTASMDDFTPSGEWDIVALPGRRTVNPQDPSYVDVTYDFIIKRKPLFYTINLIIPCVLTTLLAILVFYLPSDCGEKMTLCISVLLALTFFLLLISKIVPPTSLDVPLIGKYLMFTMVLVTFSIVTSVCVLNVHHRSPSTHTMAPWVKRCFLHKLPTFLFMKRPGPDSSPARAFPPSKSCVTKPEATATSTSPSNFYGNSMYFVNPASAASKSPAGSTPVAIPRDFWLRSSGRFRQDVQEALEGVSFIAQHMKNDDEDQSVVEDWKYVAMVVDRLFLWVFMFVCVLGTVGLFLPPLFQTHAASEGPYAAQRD
Sequence of Neuronal acetylcholine receptor; alpha3/beta4 (P32297 whole entry): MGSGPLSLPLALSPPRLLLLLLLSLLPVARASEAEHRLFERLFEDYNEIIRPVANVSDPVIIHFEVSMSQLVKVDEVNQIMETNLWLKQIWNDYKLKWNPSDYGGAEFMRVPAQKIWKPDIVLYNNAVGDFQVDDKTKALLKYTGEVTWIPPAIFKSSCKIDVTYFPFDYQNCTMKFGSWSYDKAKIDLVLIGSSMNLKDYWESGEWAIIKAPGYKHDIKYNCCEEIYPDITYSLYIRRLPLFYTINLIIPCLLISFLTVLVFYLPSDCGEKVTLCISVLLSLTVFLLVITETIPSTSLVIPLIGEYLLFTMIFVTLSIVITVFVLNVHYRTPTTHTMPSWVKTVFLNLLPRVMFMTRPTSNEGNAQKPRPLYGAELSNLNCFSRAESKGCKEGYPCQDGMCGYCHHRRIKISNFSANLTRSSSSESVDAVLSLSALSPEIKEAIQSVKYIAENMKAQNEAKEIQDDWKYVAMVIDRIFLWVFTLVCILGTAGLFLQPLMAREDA
Sequence of Neuronal acetylcholine receptor; alpha4/beta2 (P17787 whole entry): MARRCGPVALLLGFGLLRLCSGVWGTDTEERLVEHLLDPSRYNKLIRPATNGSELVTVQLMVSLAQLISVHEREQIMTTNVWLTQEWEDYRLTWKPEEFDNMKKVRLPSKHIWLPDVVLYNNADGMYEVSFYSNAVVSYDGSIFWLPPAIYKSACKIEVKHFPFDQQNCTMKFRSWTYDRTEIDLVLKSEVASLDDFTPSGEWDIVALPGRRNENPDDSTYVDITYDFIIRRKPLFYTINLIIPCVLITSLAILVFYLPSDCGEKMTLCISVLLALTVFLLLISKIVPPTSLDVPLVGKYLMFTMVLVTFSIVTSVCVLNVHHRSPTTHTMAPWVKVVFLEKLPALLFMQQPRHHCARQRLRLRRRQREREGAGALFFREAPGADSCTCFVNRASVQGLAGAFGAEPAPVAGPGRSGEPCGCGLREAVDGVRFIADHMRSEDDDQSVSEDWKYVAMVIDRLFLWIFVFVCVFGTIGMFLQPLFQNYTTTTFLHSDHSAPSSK
Sequence of Neuronal acetylcholine receptor; alpha4/beta2 (P43681 whole entry): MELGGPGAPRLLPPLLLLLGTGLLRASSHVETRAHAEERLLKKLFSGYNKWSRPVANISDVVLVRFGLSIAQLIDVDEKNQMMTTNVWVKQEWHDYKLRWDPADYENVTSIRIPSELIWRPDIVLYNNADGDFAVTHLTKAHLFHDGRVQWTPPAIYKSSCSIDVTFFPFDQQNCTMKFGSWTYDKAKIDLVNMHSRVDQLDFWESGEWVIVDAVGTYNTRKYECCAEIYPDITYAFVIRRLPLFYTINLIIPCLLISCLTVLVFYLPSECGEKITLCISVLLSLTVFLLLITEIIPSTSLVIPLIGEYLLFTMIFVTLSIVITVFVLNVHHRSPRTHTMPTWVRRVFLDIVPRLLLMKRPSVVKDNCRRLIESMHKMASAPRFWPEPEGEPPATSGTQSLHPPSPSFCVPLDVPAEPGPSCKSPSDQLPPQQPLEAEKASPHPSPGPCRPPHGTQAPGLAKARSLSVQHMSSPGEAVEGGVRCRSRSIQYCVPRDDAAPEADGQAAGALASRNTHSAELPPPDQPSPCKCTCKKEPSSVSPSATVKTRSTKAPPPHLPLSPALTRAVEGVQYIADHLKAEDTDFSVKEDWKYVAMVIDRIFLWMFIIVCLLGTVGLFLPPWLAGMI
Sequence of Neuronal acetylcholine receptor subunit alpha-7 (P36544 whole entry): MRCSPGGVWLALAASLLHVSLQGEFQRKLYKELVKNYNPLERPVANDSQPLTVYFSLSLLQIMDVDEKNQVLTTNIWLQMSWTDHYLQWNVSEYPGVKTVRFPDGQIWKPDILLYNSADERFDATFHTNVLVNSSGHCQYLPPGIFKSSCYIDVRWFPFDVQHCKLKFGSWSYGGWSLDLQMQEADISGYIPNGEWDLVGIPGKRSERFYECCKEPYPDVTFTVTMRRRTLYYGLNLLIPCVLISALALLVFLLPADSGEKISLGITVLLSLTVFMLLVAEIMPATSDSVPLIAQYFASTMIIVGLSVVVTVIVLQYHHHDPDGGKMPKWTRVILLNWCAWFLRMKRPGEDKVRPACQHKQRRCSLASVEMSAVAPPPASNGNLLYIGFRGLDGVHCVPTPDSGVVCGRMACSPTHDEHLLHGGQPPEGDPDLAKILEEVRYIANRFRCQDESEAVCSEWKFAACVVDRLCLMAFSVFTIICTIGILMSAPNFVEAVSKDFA

Regarding `c1cncc(C[C@H]2[C@H](Oc3ccc(-c4ccc5[nH]ccc5c4)cn3)C3CCN2CC3)c1`, the Ki in series [1] was found to be 780 nM; in series [2], 58 nM; in series [3] it was 470 nM.

With `COc1ccc2c3c1O[C@H]1[C@@H](O)C=C[C@H]4[C@@H](C2)N(C)CC[C@@]341`, the result in the series with Cavia porcellus [4] was Active.

As for `c1cncc(C[C@@H]2[C@@H](Oc3nnc(-c4ccc5[nH]ccc5c4)s3)C3CCN2CC3)c1` (relative stereo), the Ki turned out to be 440 nM in [1] and 220 nM in [3]. In addition, the outcome in the series on Cavia porcellus [5], with Cavia porcellus [8], in the series with Cavia porcellus [9], in the series with Cavia porcellus [10], in the series on Cavia porcellus [11] and with Cavia porcellus [13] was Active. Besides, the result in the series with Cavia porcellus [6] was inactive. Moreover, the half-life in series [7] was 1.7 h; in [12] it was 3.2 h; in series [14] it was 1.5 h.

Consider `c1cncc(C[C@@H]2[C@@H](Oc3ccc4ccccc4n3)C3CCN2CC3)c1` (relative stereo), for which the Ki turned out to be 800 nM in [1] and 140 nM in [3].

Consider `c1cncc(C[C@@H]2[C@H](Oc3ccc(-c4ccc5[nH]ccc5c4)nn3)C3CCN2CC3)c1` (relative stereo), for which the Ki in series [1] was 200 nM; in series [3], 17.3 nM.

As for `c1cncc(C[C@H]2[C@H](Oc3cnc(-c4ccc5[nH]ccc5c4)cn3)C3CCN2CC3)c1` (relative stereo), the Ki in series [1] was found to be 400 nM; in series [2], 240 nM; in series [3], 230 nM.

On to `c1cncc(C[C@H]2[C@H](Oc3ccc(-c4ccc5[nH]ccc5c4)nn3)C3CCN2CC3)c1` (relative stereo), for which the values for the Ki in series [1], in series [2] and in series [3] were 730 nM, 1.4 nM and 73 nM, respectively. Moreover, the result in the series on Cavia porcellus [15] was Active.

As to `c1ccc(-c2ccc(O[C@@H]3C4CCN(CC4)[C@H]3Cc3cccnc3)nn2)cc1` (relative stereo), the Ki is 80 nM in series [1], 100 nM in series [2] and 120 nM in [3].

As for `Nc1nc2ccc(-c3ccc(O[C@H]4C5CCN(CC5)[C@@H]4Cc4cccnc4)nn3)cc2s1` (relative stereo), the results for the Ki in series [1], in series [2] and in [3] were 1080 nM, 18.8 nM and 50 nM, respectively.

As for `c1cncc(C[C@@H]2[C@@H](Oc3ccc(-c4ccc[nH]4)nn3)C3CCN2CC3)c1` (relative stereo), the Ki in [1] is 730 nM; in series [2], 42 nM; in [3], 200 nM. Also, the outcome with Cavia porcellus [16] was Active. The result with Cavia porcellus [17] was inactive.

Consider `c1cncc(C[C@@H]2[C@@H](Oc3cc4ccccc4cn3)C3CCN2CC3)c1` (relative stereo), for which the Ki in [1] was found to be 2150 nM; in [2], 1000 nM; in [3], 1870 nM.

As for `c1ccc(-c2nnc(O[C@H]3C4CCN(CC4)[C@@H]3Cc3cccnc3)s2)cc1` (relative stereo), the Ki worked out at 340 nM in [1] and 330 nM in series [3].

The record behind these values is ChEMBL document CHEMBL5236594, “Novel α7 nicotinic acetylcholine receptor modulators as potential antitussive agents” (Bioorg Med Chem Lett, 2023).
